{"source": "patent US8691818B2", "about": "“Cyclic triazo and diazo sodium channel blockers” (University Of Greenwich, priority 2008, dated 2014)", "key": {"sodium channel": {"test_system": "sodium channel", "assay": "[14C]guanidine flux: veratrine-evoked uptake of [14C]guanidine into rat forebrain synaptosomes (primary sodium channel assay)", "format": "biochemical", "conditions": "30° for 2½ min", "outline": "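Synaptosomal fraction from male Wistar rat forebrain (without cerebellum/medulla), 20-25 mg wet weight/ml. Veratrine-evoked [14C]guanidine uptake at 30° for 2½ min across a compound concentration range; IC50 from concentration-effect curves, mean±sem.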"}, "[1]": {"test_system": "0.4 mm slices of rat hippocampus", "assay": "tissue or blood", "format": "cell-based", "conditions": "Rattus norvegicus; 30 μM; iodoacetate 400 μM insult; slice ATP; read-out: % protection (v 1 μM TTX) (mean ± sem) (no. of expt's)"}, "hERG": {"molecular_target": "hERG (Homo sapiens, UniProt Q12809)", "sequence (Q12809 whole entry)": "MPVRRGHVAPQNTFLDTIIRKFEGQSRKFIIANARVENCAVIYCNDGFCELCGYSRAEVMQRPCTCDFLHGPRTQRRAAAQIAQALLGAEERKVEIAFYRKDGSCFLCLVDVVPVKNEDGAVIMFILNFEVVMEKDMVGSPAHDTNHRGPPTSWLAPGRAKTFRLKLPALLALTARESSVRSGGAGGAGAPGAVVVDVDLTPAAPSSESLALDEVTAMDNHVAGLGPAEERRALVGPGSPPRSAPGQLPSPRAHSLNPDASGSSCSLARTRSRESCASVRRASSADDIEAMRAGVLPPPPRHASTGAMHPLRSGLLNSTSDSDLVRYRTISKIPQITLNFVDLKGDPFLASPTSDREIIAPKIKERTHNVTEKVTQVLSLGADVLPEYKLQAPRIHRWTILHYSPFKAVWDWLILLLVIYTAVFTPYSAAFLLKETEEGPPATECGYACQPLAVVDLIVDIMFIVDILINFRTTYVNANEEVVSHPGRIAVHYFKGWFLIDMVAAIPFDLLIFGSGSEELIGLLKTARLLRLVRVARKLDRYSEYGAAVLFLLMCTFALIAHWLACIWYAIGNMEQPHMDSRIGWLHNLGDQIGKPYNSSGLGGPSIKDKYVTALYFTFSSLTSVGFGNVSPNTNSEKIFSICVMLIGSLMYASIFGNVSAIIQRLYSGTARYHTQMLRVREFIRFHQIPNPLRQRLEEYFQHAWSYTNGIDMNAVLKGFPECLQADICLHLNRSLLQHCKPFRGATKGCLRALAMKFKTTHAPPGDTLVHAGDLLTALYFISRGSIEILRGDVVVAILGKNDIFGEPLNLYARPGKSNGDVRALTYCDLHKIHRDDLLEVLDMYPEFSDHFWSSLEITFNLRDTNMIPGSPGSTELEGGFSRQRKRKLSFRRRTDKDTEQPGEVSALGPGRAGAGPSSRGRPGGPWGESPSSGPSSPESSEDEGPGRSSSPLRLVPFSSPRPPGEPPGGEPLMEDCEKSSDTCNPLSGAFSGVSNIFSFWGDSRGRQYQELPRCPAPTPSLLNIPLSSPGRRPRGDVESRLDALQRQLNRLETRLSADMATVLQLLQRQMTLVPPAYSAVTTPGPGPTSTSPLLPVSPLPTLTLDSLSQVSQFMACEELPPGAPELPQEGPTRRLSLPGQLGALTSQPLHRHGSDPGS", "assay": "hERG: inhibition of binding of [3H]astemizole to HEK-293 cells expressing human recombinant hERG", "conditions": "for inhibition at 10 µM: human, probe [3H]astemizole"}, "L-Type Calcium Channels": {"test_system": "L-Type Calcium Channels", "assay": "L-type calcium channels: inhibition of binding of [3H]nitrendipine to rat cerebral cortex membranes", "conditions": "for L-type Ca2+ % inhibition @ 10 μM: [3H]nitrendipine binding; for IC50: read-out: L-type Ca2+ IC50 (μM) (extrapolated from 10 μM inh'n), extrapolated assuming binding slope 1.0"}, "[2]": {"molecular_target": "T1, DiHydroFolate Reductase (DHFR) (Rattus norvegicus, UniProt Q920D2)", "T1 construct": "from tissue; host or cells: rat liver homogenate supernatant", "T1 sequence (Q920D2 1-187)": "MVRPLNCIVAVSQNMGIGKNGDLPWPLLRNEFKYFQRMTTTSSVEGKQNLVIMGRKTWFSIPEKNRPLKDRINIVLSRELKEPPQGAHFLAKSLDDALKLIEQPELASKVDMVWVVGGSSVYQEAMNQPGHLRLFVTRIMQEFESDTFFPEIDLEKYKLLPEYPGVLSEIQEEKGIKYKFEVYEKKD", "assay": "Inhibition of binding of [3H]methotrexate to rat liver homogenate supernatant", "conditions": "125 μM; read-out: [3H]mtx binding (% inhibition @ 125 μM)", "outline": "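Displacement of [3H]methotrexate binding to rat liver homogenate supernatant, prepared at 4 °C in pH 6.0 phosphate buffer with 15 mM dithiothreitol. Values are mean±sem over the number of experiments shown.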"}, "Rat microsome stability": {"assay": "Rat microsome stability", "format": "in vitro ADME", "conditions": "1 μM, rat liver microsomes", "procedure": "Compounds were sent to BioFocus for measurement of their stability@1 μM concentration following incubation with rat liver microsomes for 40 minutes@37°."}, "Sodium Channel, Site 2": {"test_system": "Sodium Channel, Site 2", "format": "binding, Wistar Rat", "conditions": "for IC50: read-out: [3H]BTX-B binding Extrapolated IC50"}}, "note": "Counter-ions that a name gives are not always drawn."}
{"smiles": "Nc1ncc(-c2cc(Cl)cc(Cl)c2Cl)c(N)n1", "note": "[CEN-47, 2,4-Diamino-5-(2,3,5-trichlorophenyl)pyrimidine, reference compound]", "values": [{"measurement": "IC50", "setting": "sodium channel", "value": 13.2, "unit": "µM"}, {"measurement": "Emax at 30 µM", "setting": "[1]", "value": 98, "unit": "%"}, {"measurement": "IC50", "setting": "hERG", "value": 35, "unit": "µM"}, {"measurement": "inhibition at 10 µM", "setting": "hERG", "value": 22, "unit": "%"}]}
{"smiles": "CCc1nc(N)nc(N)c1-c1ccc(Cl)cc1", "note": "[CEN-48, 2,4-Diamino-5-(4-chlorophenyl)-6-ethyl-pyrimidine, reference compound]", "values": [{"measurement": "IC50", "setting": "sodium channel", "value": 5.8, "unit": "µM"}, {"measurement": "L-type Ca2+ % inhibition @ 10 μM", "setting": "L-Type Calcium Channels", "value": "−1", "unit": "%"}, {"measurement": "IC50", "setting": "L-Type Calcium Channels", "value": "> 190", "unit": "µM"}, {"measurement": "IC50", "setting": "hERG", "value": 46, "unit": "µM"}, {"measurement": "inhibition at 10 µM", "setting": "hERG", "value": 18, "unit": "%"}]}
{"smiles": "N=c1nc(N)c(-c2cc(Cl)cc(Cl)c2Cl)nn1CC(F)F", "note": "[CEN-85, 5(3)-Amino-6-(2,3,5-trichlorophenyl)-2,3(2,5)-dihydro-3(5)-imino-2-(2,2-difluoroethyl)-1,2,4-triazine]", "values": [{"measurement": "IC50", "setting": "sodium channel", "value": 3.6, "unit": "µM"}, {"measurement": "melting point", "value": "168 to 170 °C (dec.)"}, {"measurement": "inhibition at 125 µM", "setting": "[2]", "value": -5, "unit": "%"}, {"measurement": "L-type Ca2+ % inhibition @ 10 μM", "setting": "L-Type Calcium Channels", "value": "−15", "unit": "%"}, {"measurement": "IC50", "setting": "L-Type Calcium Channels", "value": "> 190", "unit": "µM"}, {"measurement": "IC50", "setting": "hERG", "value": 16, "unit": "µM"}, {"measurement": "inhibition at 10 µM", "setting": "hERG", "value": 39, "unit": "%"}]}
{"smiles": "Nc1cnc(-c2cc(Cl)cc(Cl)c2Cl)c(N)n1", "note": "[CEN-86, 2,6-Diamino-3-(2,3,5-trichlorophenyl)pyrazine]", "values": [{"measurement": "IC50", "setting": "sodium channel", "value": 14.1, "unit": "µM"}, {"measurement": "inhibition at 125 µM", "setting": "[2]", "value": -5, "unit": "%"}, {"measurement": "L-type Ca2+ % inhibition @ 10 μM", "setting": "L-Type Calcium Channels", "value": 9, "unit": "%"}, {"measurement": "IC50", "setting": "L-Type Calcium Channels", "value": 101, "unit": "µM"}, {"measurement": "Emax at 30 µM", "setting": "[1]", "value": 98, "unit": "%"}, {"measurement": "IC50", "setting": "hERG", "value": "> 200", "unit": "µM"}, {"measurement": "inhibition at 10 µM", "setting": "hERG", "value": 1, "unit": "%"}]}
{"smiles": "Nc1cnc(-c2cccc(Cl)c2Cl)c(N)n1", "note": "[CEN-87, 2,6-Diamino-3-(2,3-dichlorophenyl)pyrazine]", "values": [{"measurement": "IC50", "setting": "sodium channel", "value": 288, "unit": "µM"}, {"measurement": "melting point", "value": "150 to 153", "unit": "°C"}, {"measurement": "inhibition at 125 µM", "setting": "[2]", "value": -5, "unit": "%"}, {"measurement": "L-type Ca2+ % inhibition @ 10 μM", "setting": "L-Type Calcium Channels", "value": 7, "unit": "%"}, {"measurement": "IC50", "setting": "L-Type Calcium Channels", "value": 133, "unit": "µM"}, {"measurement": "IC50", "setting": "hERG", "value": "> 200", "unit": "µM"}, {"measurement": "inhibition at 10 µM", "setting": "hERG", "value": 3, "unit": "%"}]}
{"smiles": "Cn1nc(-c2cc(C(F)(F)F)cc(C(F)(F)F)c2)c(N)nc1=N", "note": "[CEN-99, 5(3)-Amino-6-[3,5-(bis-trifluoromethyl)phenyl]-2,3(2,5)-dihydro-3(5)-imino-2-methyl-1,2,4-triazine methanesulfonate]", "values": [{"measurement": "IC50", "setting": "sodium channel", "value": 135, "unit": "µM"}, {"measurement": "inhibition at 125 µM", "setting": "[2]", "value": -1, "unit": "%"}, {"measurement": "IC50", "setting": "hERG", "value": 34, "unit": "µM"}, {"measurement": "inhibition at 10 µM", "setting": "hERG", "value": 23, "unit": "%"}, {"measurement": "Microsome stability % metabolized (40 min incubation 37°)", "setting": "Rat microsome stability", "value": 0.0, "unit": "%"}]}
{"smiles": "CCOc1ccc2ccccc2c1-c1nnc(N)nc1N", "note": "[CEN-110]", "values": [{"measurement": "IC50", "setting": "sodium channel", "value": 135, "unit": "µM"}, {"measurement": "melting point", "value": "178 to 180", "unit": "°C"}, {"measurement": "inhibition at 125 µM", "setting": "[2]", "value": -23, "unit": "%"}, {"measurement": "IC50", "setting": "hERG", "value": "> 200", "unit": "µM"}, {"measurement": "inhibition at 10 µM", "setting": "hERG", "value": -12, "unit": "%"}, {"measurement": "Microsome stability % metabolized (40 min incubation 37°)", "setting": "Rat microsome stability", "value": 61.5, "unit": "%"}]}
{"smiles": "Nc1nnc(C(c2ccccc2)c2ccccc2)c(N)n1", "note": "[CEN-130, 3,5-Diamino-6-(diphenylmethy)-1,2,4-triazine]", "values": [{"measurement": "IC50", "setting": "sodium channel", "value": 20.4, "unit": "µM"}, {"measurement": "inhibition at 125 µM", "setting": "[2]", "value": 2, "unit": "%"}, {"measurement": "Emax at 30 µM", "setting": "[1]", "value": 39, "unit": "%"}, {"measurement": "IC50", "setting": "hERG", "value": "> 200", "unit": "µM"}, {"measurement": "inhibition at 10 µM", "setting": "hERG", "value": -2, "unit": "%"}]}
{"smiles": "Nc1nnc(-c2cc(OCC(F)(F)F)ccc2OCC(F)(F)F)c(N)n1", "note": "[CEN-140, 3,5-Diamino-6-[2,5-bis(2,2,2-trifluoroethoxy)phenyl]-1,2,4-triazine]", "values": [{"measurement": "IC50", "setting": "sodium channel", "value": 229, "unit": "µM"}, {"measurement": "inhibition at 125 µM", "setting": "[2]", "value": 3, "unit": "%"}, {"measurement": "Emax at 30 µM", "setting": "[1]", "value": -11, "unit": "%"}]}
{"smiles": "Nc1nnc(C2(c3ccc(Cl)cc3)CCC2)c(N)n1", "note": "[CEN-152, 3,5-Diamino-6-[1-(4-chlorophenyl)-1-cyclobuty]-1,2,4-triazine]", "values": [{"measurement": "IC50", "setting": "sodium channel", "value": 479, "unit": "µM"}, {"measurement": "inhibition at 125 µM", "setting": "[2]", "value": 1, "unit": "%"}, {"measurement": "Emax at 30 µM", "setting": "[1]", "value": -10, "unit": "%"}]}
{"smiles": "Nc1nnc(-c2ccccc2OCc2ccccc2)c(N)n1", "note": "[CEN-160, 3,5-Diamino-6-(2-Benzyloxyphenyl)-1,2,4-triazine]", "values": [{"measurement": "IC50", "setting": "sodium channel", "value": 295, "unit": "µM"}, {"measurement": "inhibition at 125 µM", "setting": "[2]", "value": -11, "unit": "%"}, {"measurement": "Emax at 30 µM", "setting": "[1]", "value": 0, "unit": "%"}, {"measurement": "IC50", "setting": "hERG", "value": "> 200", "unit": "µM"}, {"measurement": "inhibition at 10 µM", "setting": "hERG", "value": 0, "unit": "%"}]}
{"smiles": "Nc1nnc(C(c2ccccc2)C2CCCC2)c(N)n1", "note": "(stereo not drawn) [CEN-163, 3,5-Diamino-6-(1-cyclopentyl-1-phenylmethy)-1,2,4-triazine]", "values": [{"measurement": "IC50", "setting": "sodium channel", "value": 8, "unit": "µM"}, {"measurement": "inhibition at 125 µM", "setting": "[2]", "value": 13, "unit": "%"}, {"measurement": "Emax at 30 µM", "setting": "[1]", "value": 56, "unit": "%"}, {"measurement": "IC50", "setting": "hERG", "value": 81, "unit": "µM"}, {"measurement": "inhibition at 10 µM", "setting": "hERG", "value": 11, "unit": "%"}]}
{"smiles": "Nc1nnc(-c2cc(Cl)ccc2C(F)(F)F)c(N)n1", "note": "[CEN-200, 3,5-Diamino-6-(5-chloro-2-trifluoromethylphenyl)-1,2,4-triazine]", "values": [{"measurement": "melting point", "value": "242 to 243", "unit": "°C"}, {"measurement": "[3H]BTX-B binding % inhibition (@ 10 μM)", "setting": "Sodium Channel, Site 2", "value": 14, "unit": "%"}, {"measurement": "IC50", "setting": "Sodium Channel, Site 2", "value": 61, "unit": "µM"}]}
{"smiles": "Cn1nc(-c2cc(C(F)(F)F)cc(Cl)c2F)c(N)nc1=N", "note": "[CEN-202, 5(3)-Amino-6-(3-chloro-2-fluoro-5-trifluoromethyphenyl)-2,3(2,5)-dihydro-3(5)-imino-2-methyl-1,2,4-triazine mesylate]", "values": [{"measurement": "[3H]BTX-B binding % inhibition (@ 10 μM)", "setting": "Sodium Channel, Site 2", "value": 90, "unit": "%"}, {"measurement": "IC50", "setting": "Sodium Channel, Site 2", "value": 1, "unit": "µM"}]}
{"smiles": "CCn1nc(-c2cc(C(F)(F)F)cc(Cl)c2F)c(N)nc1=N", "note": "[CEN-203, 5(3)-Amino-6-(3-chloro-2-fluoro-5-trifluoromethyphenyl)-2,3(2,5)-dihydro-3(5)-imino-2-ethyl-1,2,4-triazine mesylate]", "values": [{"measurement": "[3H]BTX-B binding % inhibition (@ 10 μM)", "setting": "Sodium Channel, Site 2", "value": 102, "unit": "%"}, {"measurement": "IC50", "setting": "Sodium Channel, Site 2", "value": "< 0.5", "unit": "µM"}]}
